Data published in patent US20190292174A1, “MICROBIOCIDAL OXADIAZOLE DERIVATIVES” (SYNGENTA PARTICIPATIONS AG, priority 2016, published 2019).
Where “and” joins values, the source holds several entries; their conditions need not be identical. Identical values can stand only once.

Assays:
[1] = system: Glomerella lagenarium (Colletotrichum lagenarium); assay: Glomerella lagenarium (Colletotrichum lagenarium) liquid culture / cucumber / preventative (anthracnose); format: cell-based; conditions: Colletotrichum orbiculare, liquid culture (PDB), growth inhibition measured photometrically 3-4 days after application, compared to untreated control
Description: […] fragments or conidia suspensions of a fungus prepared either freshly from liquid cultures of the fungus or from cryogenic storage, are directly mixed into nutrient broth. DMSO solutions of the test compound (max. 10 mg/ml) are diluted with 0.025% Tween20 by a factor of 50 and 10 μl of this solution is pipetted into a microtiter plate (96-well format). The nutrient broth containing the fungal spores/mycelia fragments is then added to give an end concentration of the tested compound. The test plates are incubated in the dark at 24° C., and 96% relative humidity. The inhibition of fungal growth is determined photometrically after 2 to 7 days, depending on the pathosystem, and percent antifungal activity relative to the untreated check is calculated. Conidia of the fungus from cryogenic storage are directly mixed into nutrient broth (PDB potato dextrose broth). Alter placing a (DMSO) solution of test compound into a microtiter plate (96-well format), the nutrient broth containing the fungal spores is added. The test plates are incubated at 24° C., and the inhibition of growth is measured photometrically 3-4 days after application.

[2] = system: Phakopsora pachyrhizi; assay: Phakopsora pachyrhizi / soybean / leaf disc preventative (Asian soybean rust); format: in vivo; conditions: foliar, soybean leaf disks, compared to untreated control
Description: Leaf disks or leaf segments of various plant species are cut from plants grown in a greenhouse. The cut leaf disks or segments are placed in multiwell plates (24-well format) onto water agar. The leaf disks are sprayed with a test solution before (preventative) or after (curative) inoculation. Compounds to be tested are prepared as DMSO solutions (max. 10 mg/ml) which are diluted to the appropriate concentration with 0.025% Tween20 just before spraying. The inoculated leaf disks or segments are incubated under defined conditions (temperature, relative humidity, light, etc.) according to the respective test system. A single evaluation of disease level is carried out 3 to 14 days after inoculation, depending on the pathosystem. Percent disease control relative to the untreated check leaf disks or segments is then calculated. Soybean leaf disks are placed on water agar in multiwell plates (24-well format) and sprayed with the formulated test compound diluted in water. One day after application leaf discs are inoculated by spraying a spore suspension on the lower leaf surface. After an incubation period in a climate cabinet of 24-36 hours in darkness at 20° C., and 75% rh leaf disc are kept at 20° C. with 12 h light/day and 75% rh. The activity of a compound is assessed as percent disease control compared to untreated when an appropriate level of disease damage appears in untreated check leaf disks (12-14 days after application).

[3] = system: Puccinia recondita f. sp. tritici; assay: Puccinia recondita f. sp. tritici / wheat / leaf disc preventative (brown rust); format: in vivo; conditions: foliar, wheat leaf segments cv. Kanzler, preventative (inoculated 1 day after application), compared to untreated control
Description: Leaf disks or leaf segments of various plant species are cut from plants grown in a greenhouse. The cut leaf disks or segments are placed in multiwell plates (24-well format) onto water agar. The leaf disks are sprayed with a test solution before (preventative) or after (curative) inoculation. Compounds to be tested are prepared as DMSO solutions (max. 10 mg/ml) which are diluted to the appropriate concentration with 0.025% Tween20 just before spraying. The inoculated leaf disks or segments are incubated under defined conditions (temperature, relative humidity, light, etc.) according to the respective test system. A single evaluation of disease level is carried out 3 to 14 days after inoculation, depending on the pathosystem. Percent disease control relative to the untreated check leaf disks or segments is then calculated. Wheat leaf segments cv. Kanzler are placed on agar in multiwell plates (24-well format) and sprayed with the formulated test compound diluted in water. The leaf disks are inoculated with a spore suspension of the fungus 1 day after application. The inoculated leaf segments are incubated at 19° C. and 75% rh under a light regime of 12 h light/12 h darkness in a climate cabinet and the activity of a compound is assessed as percent disease control compared to untreated when an appropriate level of disease damage appears in untreated check leaf segments (7-9 days after application).

[4] = system: Puccinia recondita f. sp. tritici; assay: Puccinia recondita f. sp. tritici / wheat / leaf disc curative (brown rust); format: in vivo; conditions: foliar, 24 h, wheat leaf segments cv. Kanzler, curative (applied 1 day after inoculation), compared to untreated control, read-out: control of Puccinia recondita f. sp. tritic
Description: Leaf disks or leaf segments of various plant species are cut from plants grown in a greenhouse. The cut leaf disks or segments are placed in multiwell plates (24-well format) onto water agar. The leaf disks are sprayed with a test solution before (preventative) or after (curative) inoculation. Compounds to be tested are prepared as DMSO solutions (max. 10 mg/ml) which are diluted to the appropriate concentration with 0.025% Tween20 just before spraying. The inoculated leaf disks or segments are incubated under defined conditions (temperature, relative humidity, light, etc.) according to the respective test system. A single evaluation of disease level is carried out 3 to 14 days after inoculation, depending on the pathosystem. Percent disease control relative to the untreated check leaf disks or segments is then calculated. Wheat leaf segments cv. Kanzler are placed on agar in multiwell plates (24-well format). The leaf segments are inoculated with a spore suspension of the fungus. Plates are stored in darkness at 19° C., and 75% rh. The formulated test compound diluted in water is applied 1 day after inoculation. The leaf segments are incubated at 19° C., and 75% rh under a light regime of 12 h light/12 h darkness in a climate cabinet and the activity of a compound is assessed as percent disease control compared to untreated when an appropriate level of disease damage appears in untreated check leaf segments (6-8 days after application).

| Structure (SMILES) | melting point | inhibition of growth at 20 ppm [1] [%] | pest or weed control at 200 ppm [2] [%] | pest or weed control at 200 ppm [3] [%] | pest or weed control at 200 ppm [4] [%] |
| --- | --- | --- | --- | --- | --- |
| CC(C)OCC1CN(NC(=O)c2ccc(-c3noc(C(F)(F)F)n3)cc2)C(=O)O1 (stereo not drawn) [Compound 1.20, N-[5-(isopropoxymethyl)-2-oxo-oxazolidin-3-yl]-4-[5-(trifluoromethyl)-1,2,4-oxadiazol-3-yl]benzamide] | 192 to 197 °C | ≥ 80 | ≥ 80 | – | – |
| O=C(Cc1ccc(-c2noc(C(F)(F)F)n2)cc1)NN1CCOC1=O [Compound 1.21, N-(2-oxooxazolidin-3-yl)-2-[4-[5-(trifluoromethyl)-1,2,4-oxadiazol-3-yl]phenyl]acetamide] | 184 to 187 °C | ≥ 80 | ≥ 80 | ≥ 80 | ≥ 80 |
| O=C(NNCCOC(F)F)c1ccc(-c2noc(C(F)(F)F)n2)cc1 [Compound 1.22, N′-[2-(difluoromethoxy)ethyl]-4-[5-(trifluoromethyl)-1,2,4-oxadiazol-3-yl]benzohydrazide] | – | ≥ 80 | ≥ 80 | ≥ 80 | ≥ 80 |
| CN(C)NC(=O)Cc1ccc(-c2noc(C(F)(F)F)n2)cc1F [Compound 1.26, 2-[2-fluoro-4-[5-(trifluoromethyl)-1,2,4-oxadiazol-3-yl]phenyl]-N′,N′-dimethyl-acetohydrazide] | 156 to 158 °C | ≥ 80 | ≥ 80 | ≥ 80 | ≥ 80 |
| CN(C)NC(=O)Cc1ccc(-c2noc(C(F)(F)F)n2)cc1 [Compound 1.27, N′,N′-dimethyl-2-[4-[5-(trifluoromethyl)-1,2,4-oxadiazol-3-yl]phenyl]-acetohydrazide] | 180 to 182 °C | ≥ 80 | ≥ 80 | ≥ 80 | ≥ 80 |
| CN(C)N(CC(=O)NC(C)(C)C)C(=O)c1ccc(-c2noc(C(F)(F)F)n2)cc1 [Compound 1.1, N-tert-butyl-2-[dimethylamino-[4-[5-(trifluoromethyl)-1,2,4-oxadiazol-3-yl]benzoyl]amino]-acetamide] | – | ≥ 80 | ≥ 80 | ≥ 80 | ≥ 80 |

More lines, main results first:

| melting point | Structure (SMILES) | inhibition of growth at 20 ppm [1] [%] | pest or weed control at 200 ppm [2] [%] | pest or weed control at 200 ppm [3] [%] | pest or weed control at 200 ppm [4] [%] |
| --- | --- | --- | --- | --- | --- |
| 186 to 189 °C and 186.8 to 188.8 °C | O=C(NN1CCOC1=O)c1ccc(-c2noc(C(F)(F)F)n2)cc1F [Compound 1.3, 2-fluoro-N-(2-oxooxazolidin-3-yl)-4-[5-(trifluoromethyl)-1,2,4-oxadiazol-3-yl]benzamide] | ≥ 80 | ≥ 80 | ≥ 80 | ≥ 80 |
| 180 to 200 °C | O=C(NN1CCCCC1=O)c1ccc(-c2noc(C(F)(F)F)n2)c(F)c1 [Compound 1.24, 3-fluoro-N-(2-oxo-1-piperidyl)-4-[5-(trifluoromethyl)-1,2,4-oxadiazol-3-yl]benzamide] | ≥ 80 | ≥ 80 | ≥ 80 | ≥ 80 |
| 196 to 200 °C | O=C(NN1CCOC1=O)c1ccc(-c2noc(C(F)(F)F)n2)cc1 [Compound 1.19, N-(2-oxooxazolidin-3-yl)-4-[5-(trifluoromethyl)-1,2,4-oxadiazol-3-yl]benzamide] | ≥ 80 | ≥ 80 | ≥ 80 | ≥ 80 |
| 120 to 136 °C | O=C(NN1CCCCC1=O)c1ccc(-c2noc(C(F)(F)F)n2)cc1F [Compound 1.23, 2-fluoro-N-(2-oxo-1-piperidyl)-4-[5-(trifluoromethyl)-1,2,4-oxadiazol-3-yl]benzamide] | ≥ 80 | ≥ 80 | ≥ 80 | ≥ 80 |
| 140 to 160 °C | O=C(NN1CCOCC1)c1ccc(-c2noc(C(F)(F)F)n2)cc1F [Compound 1.15, 2-fluoro-N-morpholino-4-[5-(trifluoromethyl)-1,2,4-oxadiazol-3-yl]benzamide] | ≥ 80 | ≥ 80 | ≥ 80 | ≥ 80 |
